Reference: patent US6998413B1, “Treatment of neoplasms with yujungamycins” (priority 1999, dated 2006)
“Also recorded” adds a separate entry of the source.

What was measured:
[1] = tested on: Poly [dA] Poly [dT]; assay: Alkylation of DNA by reduced PBIs; assay type: biochemical; conditions: reduced PBI (H2, Pd on carbon), pH 7.4 tris buffer, 30° C., 24 h
Method: (§1) Alkylation of DNA by Reduced PBIs. To a mixture of 1–2 mg of DNA (poly[dA]. poly[dT], poly[dG]. poly[dC], poly[dA-dT]. poly[dT-dA]) in 2.0 mL of 0.05 M of pH 7.4 tris buffer and 2 mg of Pd on carbon was added a five-to-one base pair equivalent amount of the PBI dissolved in 0.5 mL of dimethylsulfoxide. The resulting solution was degassed under argon for 30 min., after which the mixture was purged with H2 for 10 min. The solution was then purged with argon for 10 min. and the placed in a 30° C. bath for 24 h. The reaction was opened to the air and the catalyst was removed with a Millex-PF […] syringe filter. The filtrate was adjusted to 0.3M acetate with a 3M stock solution of pH 5.1 acetate and the diluted with two volumes of ethanol. The mixture was chilled at −20° C. for 12 h and the DNA pellet collected by centrifuging at 12,000 g for 20 min. The pellet was redissolved in water and then precipitated and centrifuged again. The resulting pellet was suspended in ethanol, centrifuged, and dried.

[2] = tested on: Poly [dG] Poly [dC]; assay: Alkylation of DNA by reduced PBIs; assay type: biochemical; conditions: reduced PBI (H2, Pd on carbon), pH 7.4 tris buffer, 30° C., 24 h
Method: as §1

[3] = tested on: DT-diaphorase; assay: DT-Diaphorase reduction kinetics; assay type: biochemical; conditions: pH 7.4 tris.HCl, anaerobic, 30° C., 0.3 mM NADH, 14.5 nM enzyme active sites
Method: DT-Diaphorase Reduction Kinetics Studies. Kinetic studies were carried out in 0.05 M pH 7.4 tris.HCl buffer, under anaerobic conditions, employing Thunberg cuvettes. A 2 mM stock solution of the appropriate PBI or APBI was prepared in dimethyl sulfoxide (DMSO). To the top port was added the quinone stock and to the bottom port was added DT-diaphorase and NADH in the tris buffer. The top and bottom ports were purged with argon for 20 minutes and equilibrated to 30° C. The ports were then mixed and the reaction followed at 296 nm for 25 minutes to obtain initial rates. The concentrations upon after mixing were 0.3 mM NADH, 1 to 20×10^-5 M quinone, and 14.5 nM (based on flavin) of enzyme active sites. The value of Δε was calculated from the initial and final absorbance values for complete quinone reduction, usual value for Δε is 6000 to 8000 M−1 cm−1. The value of Δε was used to calculate Vmax in M sec-1. The results were fitted to a Lineweaver-Burke plot from which kcat/Km values were calculated based on 14.5 nM of active sites.

[4] = tested on: cancer cell lines; assay: Cytotoxicity (−log LC50) against cancer cell lines by cancer type; assay type: cell-based; conditions: for cytotoxicity (in words): cancer cell lines, FIG. 2 and FIG. 4
Description: Each −log LC50 value is the average of up to eight values.
FIG. 4. illustrates the plots of −Log LC50 versus cancer type for S(−)-1, 2, 3. Each cancer type represents the average of six to eight different cancer cell lines.

[5] = tested on: Human tumor cells; assay: Hollow fiber assay (in vivo screen, National Cancer Institute); conditions: for Total Score (hollow fiber score): 12 cell lines × 2 sites × 2 doses, highest possible score 96; for Intraperitonal Score: fibers implanted intraperitoneally; for Intraperitonal Score / Subcutaneous Score: IP dosing QD×4, high and low dose, score of two per test with % T/C of 50 or less; for Subcutaneous Score: fibers implanted subcutaneously; for Cancer cell line types sensitive: hollow fiber assay
Method: Hollow fiber assays are carried out in the following way. Human tumor cells are cultivated in polyvinylidene fluoride hollow fibers, and a sample of each cell line is implanted into each of two physiological compartments (intraperitoneally and subcutaneously). Mice are treated with either a high or a low dose using a QD×4 schedule (four daily treatments) administered intraperitoneally. Altogether, twelve cell lines are studied resulting in 48 possible test combinations (12 cell lines×2 sites×2 doses). […] These compounds are covered by two patents. (Skibo, E. B. and Islam, I. Synthesis and Elucidation of Azamitosene and Iminoazamitosene. U.S. Pat. No. 5,015,742 1991; Skibo, E. B., Islam, I. and Alberts, D. S., Antineoplastic Agents and Methods of Using the Same. U.S. Pat. No. 5,246,955, 1993).

[6] = tested on: B-16 melanoma; assay: B-16 melanoma model (syngraft) in C57/bl mice; assay type: in vivo; conditions: 1 and 3 mg/Kg IP on days 1, 5, and 9 after tumor implantation into front flank muscle
Method: These compounds were studied at two dose levels: 1 and 3 mg/Kg IP on days 1, 5, and 9 after tumor implantation into the front flank muscle. Shown in the bar graph is the area under the tumor versus time curve plotted against dose for each enantiomer.

Compound | Vmax [3] | Percentages of PBI Incorporation into DNA [1] | Percentages of PBI Incorporation into DNA [2] | Total Score (hollow fiber score) [5] | Intraperitonal Score [5] | Subcutaneous Score [5] | also measured
3-Amino-6-azindinyl-2,3-dihydro-7-methyl-1H-pyrrolo[1,2-a]benzimidazole-5,8-dione [R(+)-B] | 14.6 nM/s |  |  |  |  |  | Percentages of PBI Incorporation into DNA ([1]; listed as R(+)−B): 60%; Percentages of PBI Incorporation into DNA ([2]; listed as R(+)−B): 105%
3-Amino-6-azindinyl-2,3-dihydro-7-methyl-1H-pyrrolo[1,2-a]benzimidazole-5,8-dione [S(−)-B] |  |  |  |  |  |  | Percentages of PBI Incorporation into DNA ([1]; listed as S(−)−B): 186%; Percentages of PBI Incorporation into DNA ([2]; listed as S(−)−B): 52%
3-Amino-6-azindinyl-2,3-dihydro-7-methyl-1H-pyrrolo[1,2-a]benzimidazole-5,8-dione [Yujungamycin B] |  |  |  |  |  |  | cytotoxicity (in words) [4]: high potency; cytotoxicity (in words) ([4]; listed as 2): high cytotoxicity against non-small-cell lung, central nervous system, melanoma, ovarian, and renal cancers; change in cytotoxicity, 3-hydroxy changed to 3-amino ([4]; relative to the 3-hydroxy derivative): ˜million-fold change in cytotoxicity
3-Carbamido-6-aziridinyl-2,3-dihydro-7-methyl-1H-pyrrolo[1,2-a]benzimidazole-5,8-dione [R(+)-C] | 39.3 nM/s | 31% | 17% |  |  |  | 
3-Carbamido-6-aziridinyl-2,3-dihydro-7-methyl-1H-pyrrolo[1,2-a]benzimidazole-5,8-dione [S(−)-C] | 21.8 nM/s | 70% | 12.4% |  |  |  | 
CC(=O)OC1CCN2C1=NC1C(=O)C(N3CC3)=C(C)C(=O)C12 (centres unmarked) [PBI-A] |  |  |  | 48 | 40 | 8 | Cancer cell line types sensitive [5]: melanoma, NSC lung cancer, breast cancer, and ovarian cancer; activity in the hollow fiber assay / in vivo [5]: active in the hollow fiber assay
CC1=C(N2CC2)C(=O)c2nc3n(c2C1=O)CCC3OC(N)=O (centres unmarked) [PBI-B] |  |  |  | 30 | 24 | 6 | Cancer cell line types sensitive [5]: melanoma, NSC lung cancer, breast cancer, and ovarian cancer; activity in the hollow fiber assay / in vivo [5]: active in the hollow fiber assay
CC(=O)NC1CCn2c1nc1c2C(=O)C(C)=C(N2CC2)C1=O (stereo not drawn) [S(−)-A] | 47.6 nM/s | 17.4% | 6.6% | 52 | 38 | 14 | activity in B-16 melanoma model (area under the tumor versus time curve) ([6]; listed as S(−) Yujungamycin A): failed to show much difference in activity between the enantiomers; also recorded: no apparent differences between the enantiomers; activity in B-16 melanoma model (area under the tumor versus time curve) ([6]; listed as S(−)-Yujungamycin A): activity
